Laboratory results: paper PMC11864180, “Dimeric assembly of F1-like ATPase for the gliding motility of Mycoplasma” (Science Advances, 2025)

Molecular target: T1, G1-ATPase (dimeric F1-like ATPase, twin motor; type 2 ATPase) ([Mycoplasma] mobile, UniProt Q6KIC3+Q6KIC4)
T1 construct: gene atpA; native twin motor isolated from M. mobile cells; two alpha3beta3gamma units with GliD, GliE and PGK; PGK CTD only partly modelled; strain mutation lies in gli521, outside the complex; with F1-like ATPase gamma subunit (G1-gamma); GliD (bridge subunit of G1-ATPase); GliE (G1-ATPase subunit, 112 amino acids); Phosphoglycerate kinase
Assay: cryo-EM structure of the complex ([…] Å; local […] Å)
Type: binding
Conditions: Mg2+, endogenous nucleotide, isolated without added nucleotide, PBS pH 7.3, 1 mM MgCl2

SMILES | cryo-EM structure of the complex (3.2 Å; local 3.1 Å) (catalytic site of alphaHO-betaHO, together with Pi) | cryo-EM structure of the complex (3.2 Å; local 3.1 Å) (catalytic site of alphaC-betaC and the three noncatalytic beta-alpha interfaces)
Nc1ncnc2c1ncn2[C@@H]1O[C@H](COP(=O)(O)OP(=O)(O)O)[C@@H](O)[C@H]1O [Mg-ADP] | αCβC and αHOβHO contained Mg-ATP and Mg-ADP + Pi, respectively | 
Nc1ncnc2c1ncn2[C@@H]1O[C@H](COP(=O)(O)OP(=O)(O)OP(=O)(O)O)[C@@H](O)[C@H]1O [Mg-ATP] |  | Mg-ATP was observed at the remaining three interfaces, hereafter referred to as the β-α interfaces
